SMILES strings stand for the structures. Where two headings read alike, the source gives them in different places.

The target of this test is T1, human ALK (Homo sapiens, UniProt Q9UM73).
T1 construct: GST (N); purchased Invitrogen, Carlsbad, Calif; (or prepared by AstraZeneca); host or cells: insect cells
In words: ALK kinase mobility shift assay (Caliper LC3000). The conditions noted are these: ATP 30 μM (Km) or 5 mM, not specified which. In kind it is biochemical. How it is done: ALK kinase activity was determined by measuring the kinase's ability to phosphorylate a tyrosine residue within a peptide substrate using a mobility shift assay on a Caliper LC3000 reader (Caliper Life Sciences, Hopkinton, Mass.), which measures fluorescence of the phosphorylated and unphosphorylated substrate and calculates a ratiometric value to determine percent turnover.
To measure ALK kinase activity, the ALK enzyme used was N-terminal GST-tagged, recombinant, human ALK, amino acids 1058-1620 (Genbank Accession number NP_004295) expressed in insect cells and activated in-vitro via autophosphorylation. This was either purchased from a commercially available source (Invitrogen, Carlsbad, Calif.) or prepared by AstraZeneca. The kinase was incubated with a FAM labeled SRCtide substrate (5FAM-GEEPLYWSFPAKKK-NH2, AnaSpec, Fremont, Calif.), 30 μM adenosine triphosphate (ATP, at Km concentration) or 5 mM ATP, 50 mM HEPES buffer (pH 7.3), 1 mM DTT, 0.01% Tween 20, 50 μg/ml BSA and 10 mM MgCl2 for 90 minutes at room temperature. After this time, the kinase reaction was stopped by adding quenching buffer containing final concentrations of 36 mM ethylenediaminetetraacetic acid (EDTA), 65 mM HEPES buffer (pH 7.3), 0.2% Coatin Reagent 3 (Caliper Life Sciences, Hopkinton, Mass.), and 0.003% Tween 20. The reaction was performed in 384 well microtitre plates and the reaction products were detected using the Caliper LC3000 Reader in the presence of separation buffer consisting of 100 mM HEPES (pH 7.3), 15.8 mM EDTA, 0.1% Coatin Reagent 3 (Caliper, Mass.), 0.015% Brij-35, 5% DMSO, and 5.6 mM MgCl2. The separation conditions set up on the Caliper LC3000 were −1.7 PSI, −400V upstream voltage, −2000V downstream voltage, 0.2 second sample sip, 45 second post sip, and 150 seconds final delay. The percentage of inhibition of ALK enzyme activity by compounds were measured based on Max signals (DMSO control) and Min signals (EDTA control) in the plates. Data was graphed and IC50s calculated by IDBS ActivityBase program.

Where [1] appears, read: geometric means of multiple test runs, as presented in the priority filings, read-out: ALK Enzyme IC50 (μM)*.
[2] abbreviates: cumulative geometric means including test re-runs, some obtained since the priority filings, read-out: ALK Enzyme IC50 (μM)**.

T1 sequence (Q9UM73 1058-1620): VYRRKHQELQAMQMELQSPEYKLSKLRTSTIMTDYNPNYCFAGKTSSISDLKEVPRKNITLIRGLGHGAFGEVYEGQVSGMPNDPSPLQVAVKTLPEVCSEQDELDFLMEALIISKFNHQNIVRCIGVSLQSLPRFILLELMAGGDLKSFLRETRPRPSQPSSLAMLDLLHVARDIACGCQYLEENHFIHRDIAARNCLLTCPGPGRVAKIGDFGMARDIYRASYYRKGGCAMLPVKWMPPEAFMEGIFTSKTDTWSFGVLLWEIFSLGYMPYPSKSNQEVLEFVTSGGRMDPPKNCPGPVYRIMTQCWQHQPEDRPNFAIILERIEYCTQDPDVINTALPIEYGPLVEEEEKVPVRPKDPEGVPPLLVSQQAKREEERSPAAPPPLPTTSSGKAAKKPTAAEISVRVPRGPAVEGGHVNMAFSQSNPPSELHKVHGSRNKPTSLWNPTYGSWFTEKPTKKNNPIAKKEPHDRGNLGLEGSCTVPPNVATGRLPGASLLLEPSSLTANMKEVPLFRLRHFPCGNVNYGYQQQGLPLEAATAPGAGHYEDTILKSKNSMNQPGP

The term IC50 denotes the point on the concentration scale where inhibition reaches its midpoint. For the compound `COc1cc(N2CCC(NCCO)CC2)ccc1Nc1ncc(Cl)c(-c2c[nH]c3ccccc23)n1` [Example 20, 2-(1-(4-(5-Chloro-4-(1H-indol-3-yl)pyrimidin-2-ylamino)-3-methoxyphenyl)piperidin-4-ylamino)ethanol], under setting [1], the IC50 worked out at 0.029 µM. `COc1cc(N2CCC(N3CCN(C)CC3)CC2)ccc1Nc1ncc(Br)c(-c2c[nH]c3ccccc23)n1` [Example 27]: the half-inhibitory concentration (IC50) under setting [1] came to 0.033 µM. Consider `COc1cc(N2CCC(N)C(F)C2)ccc1Nc1ncc(Cl)c(-c2c[nH]c3ccccc23)n1` (single isomer, unassigned) [Example 45, (trans)-N-(4-(4-amino-3-fluoropiperidin-1-yl)-2-methoxyphenyl)-5-chloro-4-(1H-indol-3-yl)pyrimidin-2-amine], for which the IC50 under setting [2] was 0.061 µM. On to `CNC1CCN(c2ccc(Nc3ncc(Cl)c(-c4c[nH]c5ccccc45)n3)c(OC)c2)CC1(C)C` (stereo not drawn) [Example 31, 5-chloro-N-(4-(3,3-dimethyl-4-(methylamino)piperidin-1-yl)-2-methoxyphenyl)-4-(1H-indol-3-yl)pyrimidin-2-amine], for which the IC50 stood at 0.136 µM under setting [2] and 0.088 µM under setting [1]. Turning to `COc1cc(N2CCC(N(C)C)C(C)(C)C2)ccc1Nc1ncc(Cl)c(-c2c[nH]c3ccccc23)n1` (stereo not drawn) [Example 32, 5-chloro-N-(4-(4-(dimethylamino)-3,3-dimethylpiperidin-1-yl)-2-methoxyphenyl)-4-(1H-indol-3-yl)pyrimidin-2-amine], the IC50 under setting [2] stood at 0.356 µM and the IC50 under setting [1] was 0.343 µM. In the case of `COc1cc(N2CCC(N)C(F)C2)ccc1Nc1ncc(Cl)c(-c2c[nH]c3ccccc23)n1` (single isomer, unassigned) [Example 50, (cis)-N-(4-(4-amino-3-fluoropiperidin-1-yl)-2-methoxyphenyl)-5-chloro-4-(1H-indol-3-yl)pyrimidin-2-amine], the half-maximal inhibitory concentration (IC50) under setting [2] came out at 0.022 µM. For the compound `COc1cc(N2CCC(N3CCN(C)CC3)CC2)ccc1Nc1ncc(C#N)c(-c2c[nH]c3ccccc23)n1` [Example 28, 4-(1H-Indol-3-yl)-2-(2-methoxy-4-(4-(4-methylpiperazin-1-yl)piperidin-1-yl)phenylamino)pyrimidine-5-carbonitrile], the IC50 under setting [1] was found to be 0.024 µM. Take `COc1cc(N2CCC(NC3COC3)CC2)ccc1Nc1ncc(Cl)c(-c2c[nH]c3ccccc23)n1` [Example 26, 5-Chloro-4-(1H-indol-3-yl)-N-(2-methoxy-4-(4-(oxetan-3-ylamino)piperidin-1-yl)phenyl)pyrimidin-2-amine]: the IC50 under setting [1] was 0.113 µM. In the case of `COc1cc(N2CCC(N3CCN(C)CC3)CC2)ccc1Nc1ncc(F)c(-c2cn(C)c3ccccc23)n1` [Example 36, 5-fluoro-N-(2-methoxy-4-(4-(4-methylpiperazin-1-yl)piperidin-1-yl)phenyl)-4-(1-methyl-1H-indol-3-yl)pyrimidin-2-amine], the IC50 under setting [1] is 1.48 µM. Turning to `COc1cc(N2CCC(N3CCN(C)CC3)CC2)c(Cl)cc1Nc1ncc(Cl)c(-c2c[nH]c3ccccc23)n1` [Example 40, 5-chloro-N-[5-chloro-2-methoxy-4-[4-(4-methylpiperazin-1-yl)-1-piperidyl]phenyl]-4-(1H-indol-3-yl)pyrimidin-2-amine], under setting [1], the 50% inhibitory concentration (IC50) is 0.198 µM. In the case of `COc1cc(N2CCC(N3CCN(C)CC3)CC2)ccc1Nc1ncc(F)c(-c2c[nH]c3ccccc23)n1` [Example 7, 5-Fluoro-4-(1H-Indol-3-yl)-N-(2-methoxy-4-(4-(4-methylpiperazin-1-yl)piperidin-1-yl)phenyl)pyrimidin-2-amine], the half-inhibitory concentration (IC50) reads like this: under setting [2], 0.079 µM; under setting [1], 0.041 µM. Regarding `COc1cc(N2CCC(N3CCNCC3)CC2)ccc1Nc1ncc(Cl)c(-c2c[nH]c3ccccc23)n1` [Example 3, 5-Chloro-4-(1H-indol-3-yl)-N-(2-methoxy-4-(4-(piperazin-1-yl)piperidin-1-yl)phenyl)pyrimidin-2-amine], the IC50 under setting [1] is 0.07 µM.
